Broadly, the IC50 is the concentration that gives 50% inhibition. Read a low IC50 as greater potency.

Bounds are passed on as bounds.

The target of one assay is T1, kinase domain of BMX (Homo sapiens, UniProt P51813).
T1 construct: The kinase domains of JAK3 and BMX at 2 μM
Kind of assay: Mass spectrometric investigation of covalent binding to BMX (ESI-TOF). The note with it: 4 °C; for BMX covalent adduct fraction, 30 min / BMX covalent adduct fraction, 60 min / BMX covalent adduct fraction, 120 min / BMX covalent adduct fraction, 240 min / native (unmodified) BMX fraction, 30 min / native (unmodified) BMX fraction, 60 min / native (unmodified) BMX fraction, 120 min / native (unmodified) BMX fraction, 240 min: 1.5-fold molar excess of inhibitor; for covalent labeling of BMX (in words): complete labeling refers to 30 min. The protocol: The kinase domain of BMX was diluted to 0.05 mM with buffer containing 20 mM Tris pH 8.0, 200 mM NaCl, 0.5 mM TCEP (pH 7.0) and was subsequently mixed with 0.075 mM inhibitors (ratio of protein to inhibitor of 1:1.5). The mixture was incubated at 4°C. The samples were taken at different time points, the reaction stopped by diluting the sample with a 200-fold excess of 1% formic acid. The denatured protein and the adducts were assessed using electrospray time-of-flight (ESI-TOF) mass spectrometry.

A further assay addresses T2, JAK2 (Homo sapiens, UniProt O60674).
T2 construct: purchased Reaction Biology Corporation
The assay is described as follows: Radiometric kinase assay (Reaction Biology HotSpot). The format is biochemical. The note with it: five-dose singlicate, [ATP] = 10 μM. Here is the method: (§1) If not mentioned differently, in vitro profiling of compounds was performed at Reaction Biology Corporation using the HotSpot™ assay platform.

A further assay deals with T3, BTK (Homo sapiens, UniProt Q06187).
T3 construct: purchased Reaction Biology Corporation
T3 sequence (Q06187 whole entry): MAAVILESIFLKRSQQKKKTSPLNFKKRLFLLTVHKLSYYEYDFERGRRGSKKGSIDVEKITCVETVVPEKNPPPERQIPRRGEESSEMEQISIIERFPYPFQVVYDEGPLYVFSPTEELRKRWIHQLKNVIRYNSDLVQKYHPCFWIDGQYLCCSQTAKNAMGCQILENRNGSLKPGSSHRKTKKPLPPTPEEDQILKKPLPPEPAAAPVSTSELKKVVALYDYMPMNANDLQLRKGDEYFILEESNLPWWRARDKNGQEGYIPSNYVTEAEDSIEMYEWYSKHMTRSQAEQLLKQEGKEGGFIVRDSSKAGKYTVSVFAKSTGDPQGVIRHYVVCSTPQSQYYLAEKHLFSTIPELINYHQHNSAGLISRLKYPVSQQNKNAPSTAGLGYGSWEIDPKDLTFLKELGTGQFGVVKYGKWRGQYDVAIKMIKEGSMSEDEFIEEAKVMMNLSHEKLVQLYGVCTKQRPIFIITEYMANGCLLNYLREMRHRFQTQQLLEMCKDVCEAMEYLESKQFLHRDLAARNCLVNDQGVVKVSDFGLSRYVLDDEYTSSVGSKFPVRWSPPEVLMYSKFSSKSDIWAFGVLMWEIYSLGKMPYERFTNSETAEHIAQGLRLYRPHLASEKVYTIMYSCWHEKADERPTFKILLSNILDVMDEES
Described as above. It counts as biochemical. The note with it: [ATP] = 10 μM; for remaining activity at 0.2 µM: read-out: Residual Activity @ 200 nM, BTK. Here is the method: as §1

Another assay has as its target T4, TEC (Homo sapiens, UniProt P42680).
T4 construct: purchased Reaction Biology Corporation
T4 sequence (P42680 1-631): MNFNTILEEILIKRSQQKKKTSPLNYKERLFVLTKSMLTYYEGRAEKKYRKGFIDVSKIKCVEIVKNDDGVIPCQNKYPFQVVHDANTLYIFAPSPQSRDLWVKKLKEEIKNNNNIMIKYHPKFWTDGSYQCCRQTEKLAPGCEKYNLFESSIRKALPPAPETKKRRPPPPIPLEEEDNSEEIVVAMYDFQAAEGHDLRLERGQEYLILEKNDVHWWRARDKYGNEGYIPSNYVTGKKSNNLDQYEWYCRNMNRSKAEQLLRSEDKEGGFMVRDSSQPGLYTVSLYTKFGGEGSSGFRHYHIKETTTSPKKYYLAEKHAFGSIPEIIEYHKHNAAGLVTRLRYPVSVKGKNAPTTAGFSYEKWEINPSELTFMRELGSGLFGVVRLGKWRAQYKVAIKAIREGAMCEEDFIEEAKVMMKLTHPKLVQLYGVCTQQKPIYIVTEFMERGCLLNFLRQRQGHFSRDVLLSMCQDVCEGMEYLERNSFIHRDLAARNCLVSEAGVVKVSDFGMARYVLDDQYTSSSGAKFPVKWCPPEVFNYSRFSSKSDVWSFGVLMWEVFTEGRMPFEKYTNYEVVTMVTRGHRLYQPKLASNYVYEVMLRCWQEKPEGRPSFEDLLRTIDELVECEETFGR
The assay is described as above. The format is biochemical. The note with it: [ATP] = 10 μM; for remaining activity at 0.2 µM: 200 nM compound, duplicate mean, read-out: Residual Activity @ 200 nM, TEC. The protocol:
as §1

The target of another assay is T5, JAK1 (Homo sapiens, UniProt P23458).
T5 construct: purchased Reaction Biology Corporation
T5 sequence (P23458 whole entry): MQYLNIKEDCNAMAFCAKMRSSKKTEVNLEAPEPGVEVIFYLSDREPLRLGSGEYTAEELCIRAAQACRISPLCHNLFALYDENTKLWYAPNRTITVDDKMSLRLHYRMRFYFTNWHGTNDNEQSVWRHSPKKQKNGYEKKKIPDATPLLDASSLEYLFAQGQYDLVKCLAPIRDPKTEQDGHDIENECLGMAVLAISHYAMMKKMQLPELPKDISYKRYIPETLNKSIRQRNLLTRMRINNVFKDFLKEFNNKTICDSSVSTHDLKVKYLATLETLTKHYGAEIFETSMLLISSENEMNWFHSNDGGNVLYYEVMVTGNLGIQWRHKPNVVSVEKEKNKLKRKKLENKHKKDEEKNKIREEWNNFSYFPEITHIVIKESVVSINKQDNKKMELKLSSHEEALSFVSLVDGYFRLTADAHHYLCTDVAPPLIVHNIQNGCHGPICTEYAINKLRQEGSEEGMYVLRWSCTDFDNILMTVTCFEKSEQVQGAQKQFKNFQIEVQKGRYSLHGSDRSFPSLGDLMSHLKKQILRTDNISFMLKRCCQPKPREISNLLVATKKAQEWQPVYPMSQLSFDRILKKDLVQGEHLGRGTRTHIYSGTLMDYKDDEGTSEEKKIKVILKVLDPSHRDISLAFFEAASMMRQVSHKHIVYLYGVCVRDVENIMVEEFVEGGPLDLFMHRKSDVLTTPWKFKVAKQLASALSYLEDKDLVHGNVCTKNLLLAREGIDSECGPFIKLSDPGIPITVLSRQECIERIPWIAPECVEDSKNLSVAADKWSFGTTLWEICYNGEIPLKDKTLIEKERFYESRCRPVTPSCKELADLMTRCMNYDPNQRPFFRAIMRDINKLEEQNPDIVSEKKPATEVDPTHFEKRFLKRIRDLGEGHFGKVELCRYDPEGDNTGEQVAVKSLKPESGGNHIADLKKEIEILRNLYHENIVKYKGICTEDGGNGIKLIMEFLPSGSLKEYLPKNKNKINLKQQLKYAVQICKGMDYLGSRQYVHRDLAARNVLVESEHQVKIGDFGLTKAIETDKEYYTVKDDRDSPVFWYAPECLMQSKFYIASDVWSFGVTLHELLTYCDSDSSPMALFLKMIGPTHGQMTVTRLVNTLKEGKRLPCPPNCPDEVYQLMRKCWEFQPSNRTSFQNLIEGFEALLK
Described as above. The format is biochemical. The following applies: five-dose singlicate, [ATP] = 10 μM. Here is the method:
as §1

The target of a further assay is T6, TYK2 (Homo sapiens, UniProt P29597).
T6 construct: purchased Reaction Biology Corporation
T6 sequence (P29597 whole entry): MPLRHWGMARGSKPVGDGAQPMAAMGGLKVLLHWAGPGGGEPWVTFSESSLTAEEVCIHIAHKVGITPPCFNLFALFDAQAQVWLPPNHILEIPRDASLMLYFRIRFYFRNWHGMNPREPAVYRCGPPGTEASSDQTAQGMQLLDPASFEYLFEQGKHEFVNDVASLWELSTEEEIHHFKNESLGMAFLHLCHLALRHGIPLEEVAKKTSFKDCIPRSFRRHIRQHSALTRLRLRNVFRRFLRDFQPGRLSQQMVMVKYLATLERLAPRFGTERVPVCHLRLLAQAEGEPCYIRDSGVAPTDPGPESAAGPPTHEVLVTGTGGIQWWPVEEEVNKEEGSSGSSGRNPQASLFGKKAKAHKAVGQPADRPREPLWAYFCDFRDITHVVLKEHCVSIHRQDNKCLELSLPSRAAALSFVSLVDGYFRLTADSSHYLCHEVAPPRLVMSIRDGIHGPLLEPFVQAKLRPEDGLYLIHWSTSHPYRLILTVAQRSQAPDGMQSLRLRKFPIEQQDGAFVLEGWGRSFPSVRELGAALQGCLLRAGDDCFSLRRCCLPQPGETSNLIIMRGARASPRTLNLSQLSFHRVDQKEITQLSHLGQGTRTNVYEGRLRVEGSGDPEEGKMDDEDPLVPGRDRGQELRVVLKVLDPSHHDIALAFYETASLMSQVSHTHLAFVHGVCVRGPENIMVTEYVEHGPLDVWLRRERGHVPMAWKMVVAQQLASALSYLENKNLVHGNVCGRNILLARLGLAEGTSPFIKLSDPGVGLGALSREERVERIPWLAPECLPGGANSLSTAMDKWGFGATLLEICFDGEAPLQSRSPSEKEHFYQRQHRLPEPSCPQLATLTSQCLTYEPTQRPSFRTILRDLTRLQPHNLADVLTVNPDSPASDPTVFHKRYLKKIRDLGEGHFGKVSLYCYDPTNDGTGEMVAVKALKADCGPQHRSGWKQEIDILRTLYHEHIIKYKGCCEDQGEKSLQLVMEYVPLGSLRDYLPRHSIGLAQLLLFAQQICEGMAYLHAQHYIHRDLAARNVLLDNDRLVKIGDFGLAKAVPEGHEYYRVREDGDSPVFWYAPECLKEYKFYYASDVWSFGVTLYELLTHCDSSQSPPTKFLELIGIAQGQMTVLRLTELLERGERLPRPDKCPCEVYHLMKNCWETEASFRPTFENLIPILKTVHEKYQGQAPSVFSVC
The description is as above. The format is biochemical. The following applies: five-dose singlicate, [ATP] = 10 μM. Here is the method: as §1

The target of a further assay is T7, EGFR (Homo sapiens, UniProt P00533).
T7 construct: purchased Reaction Biology Corporation
T7 sequence (P00533 25-1210): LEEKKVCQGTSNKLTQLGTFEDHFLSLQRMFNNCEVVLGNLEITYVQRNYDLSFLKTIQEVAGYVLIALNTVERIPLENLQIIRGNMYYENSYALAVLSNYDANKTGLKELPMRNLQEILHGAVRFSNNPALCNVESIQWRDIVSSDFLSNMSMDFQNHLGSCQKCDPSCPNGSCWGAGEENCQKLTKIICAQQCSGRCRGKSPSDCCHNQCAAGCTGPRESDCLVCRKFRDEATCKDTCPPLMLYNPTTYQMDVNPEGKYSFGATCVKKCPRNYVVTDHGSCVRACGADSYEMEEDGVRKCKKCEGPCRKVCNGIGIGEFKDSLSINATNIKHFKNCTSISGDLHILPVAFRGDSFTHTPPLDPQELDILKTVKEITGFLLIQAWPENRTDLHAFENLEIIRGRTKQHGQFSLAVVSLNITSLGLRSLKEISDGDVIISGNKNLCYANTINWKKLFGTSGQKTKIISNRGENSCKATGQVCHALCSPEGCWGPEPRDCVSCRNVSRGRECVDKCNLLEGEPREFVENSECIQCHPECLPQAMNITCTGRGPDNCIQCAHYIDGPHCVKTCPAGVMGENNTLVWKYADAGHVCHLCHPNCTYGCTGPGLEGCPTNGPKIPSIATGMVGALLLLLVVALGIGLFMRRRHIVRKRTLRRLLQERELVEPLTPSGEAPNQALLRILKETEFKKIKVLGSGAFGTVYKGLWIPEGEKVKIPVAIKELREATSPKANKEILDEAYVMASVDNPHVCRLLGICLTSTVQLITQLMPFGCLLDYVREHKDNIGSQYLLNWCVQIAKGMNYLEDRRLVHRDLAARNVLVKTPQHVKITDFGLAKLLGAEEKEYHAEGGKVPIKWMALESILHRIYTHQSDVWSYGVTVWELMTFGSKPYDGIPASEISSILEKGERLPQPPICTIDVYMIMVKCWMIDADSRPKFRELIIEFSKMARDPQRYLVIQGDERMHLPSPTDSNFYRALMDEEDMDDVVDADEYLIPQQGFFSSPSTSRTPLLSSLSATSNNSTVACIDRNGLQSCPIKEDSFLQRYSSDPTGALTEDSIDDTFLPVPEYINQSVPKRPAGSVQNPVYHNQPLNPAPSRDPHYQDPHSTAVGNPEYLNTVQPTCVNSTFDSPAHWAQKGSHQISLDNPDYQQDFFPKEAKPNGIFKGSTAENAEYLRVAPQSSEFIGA
The assay is described as above. It counts as biochemical. The following applies: [ATP] = 10 μM; for remaining activity at 0.2 µM: 200 nM compound, duplicate mean, read-out: Residual Activity @ 200 nM, EGFR; for IC50: radiometric HotSpot, five-dose singlicate. The protocol:
as §1

The test system of assay [1] is kinases harboring an αD-1 cysteine. Kind of assay: Profiling at 200 nM against kinases with an αD-1 cysteine. The format is biochemical. The following applies: 200 nM compound. The protocol: as §1
A further assay addresses T8, JAK3 (Homo sapiens, UniProt P52333).
T8 construct: purchased Reaction Biology Corporation
T8 sequence (P52333 1-1124): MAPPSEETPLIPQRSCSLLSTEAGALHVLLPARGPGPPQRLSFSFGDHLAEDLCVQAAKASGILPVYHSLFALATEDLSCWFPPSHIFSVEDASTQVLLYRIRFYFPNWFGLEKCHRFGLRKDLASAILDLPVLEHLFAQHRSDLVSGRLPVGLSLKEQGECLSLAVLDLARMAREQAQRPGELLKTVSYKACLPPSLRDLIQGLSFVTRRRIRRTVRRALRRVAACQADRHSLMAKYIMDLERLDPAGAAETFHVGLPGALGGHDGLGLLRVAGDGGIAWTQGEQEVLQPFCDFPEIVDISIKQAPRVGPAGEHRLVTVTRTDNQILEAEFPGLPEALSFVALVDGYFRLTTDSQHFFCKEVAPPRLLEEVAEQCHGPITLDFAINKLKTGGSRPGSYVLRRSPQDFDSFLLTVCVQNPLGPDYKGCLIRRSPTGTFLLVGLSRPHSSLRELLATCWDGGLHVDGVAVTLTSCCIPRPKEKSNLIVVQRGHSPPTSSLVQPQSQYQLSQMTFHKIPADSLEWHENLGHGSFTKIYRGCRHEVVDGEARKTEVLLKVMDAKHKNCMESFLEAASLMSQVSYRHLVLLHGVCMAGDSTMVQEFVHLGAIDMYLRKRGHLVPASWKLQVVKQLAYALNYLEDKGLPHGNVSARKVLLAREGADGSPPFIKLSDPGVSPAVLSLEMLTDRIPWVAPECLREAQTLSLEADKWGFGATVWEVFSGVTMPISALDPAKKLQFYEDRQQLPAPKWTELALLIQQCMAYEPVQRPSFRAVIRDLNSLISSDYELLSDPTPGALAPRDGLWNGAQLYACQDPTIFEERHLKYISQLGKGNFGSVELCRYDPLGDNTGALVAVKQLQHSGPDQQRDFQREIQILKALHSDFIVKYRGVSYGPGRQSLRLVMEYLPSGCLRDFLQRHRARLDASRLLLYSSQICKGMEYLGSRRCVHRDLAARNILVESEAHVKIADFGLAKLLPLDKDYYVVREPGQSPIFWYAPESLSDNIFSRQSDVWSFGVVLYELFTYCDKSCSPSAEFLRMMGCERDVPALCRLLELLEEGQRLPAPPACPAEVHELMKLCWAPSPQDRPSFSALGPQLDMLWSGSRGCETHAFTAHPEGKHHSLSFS
The assay is described as follows: JAK3 ELISA assay. It counts as biochemical. The following applies: Determined in a JAK3 ELISA assay.

The mark [2] stands for this setting: 200 nM compound, duplicate mean.
[3] abbreviates: radiometric HotSpot, five-dose singlicate.

T1 sequence (P51813 417-675 limits assumed): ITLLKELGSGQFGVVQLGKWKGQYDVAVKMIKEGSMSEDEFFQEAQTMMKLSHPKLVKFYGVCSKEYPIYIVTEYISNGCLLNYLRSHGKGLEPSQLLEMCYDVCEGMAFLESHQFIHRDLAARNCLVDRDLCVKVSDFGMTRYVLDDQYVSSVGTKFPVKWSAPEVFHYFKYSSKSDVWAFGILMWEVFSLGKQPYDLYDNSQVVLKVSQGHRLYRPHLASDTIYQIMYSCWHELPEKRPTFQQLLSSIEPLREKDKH

For `C=CC(=O)Nc1cccc(-c2c[nH]c3ncccc23)c1` [Compound 9a, N-(3-(1H-pyrrolo[2,3-b]pyridin-3-yl)phenyl)acrylamide], the “BMX covalent adduct fraction, 30 min” value on kinase domain of BMX was 100%. In addition, at kinase domain of BMX, the “BMX covalent adduct fraction, 60 min” value was determined as 100%. In addition, on kinase domain of BMX, the “BMX covalent adduct fraction, 120 min” value is 100%. The “BMX covalent adduct fraction, 240 min” value on kinase domain of BMX amounted to 100%. Besides, the “covalent labeling of BMX (in words)” value on kinase domain of BMX (1.5-fold molar excess) is listed as “complete labeling”. The IC50 amounted to 3580 nM against JAK2, 2970 nM at JAK1, 5540 nM on TYK2 and 5250 nM against EGFR. Moreover, the remaining activity at 0.2 µM on BTK (setting [2]) was 18.2%; at TEC, 37.1%; on EGFR it was greater than 100%.
On to `C=CC(=O)Nc1cccc(-c2c[nH]c3ncc(C(N)=O)cc23)c1` [Compound 10a, 3-(3-acrylamidophenyl)-1H-pyrrolo[2,3-b]pyridine-5-carboxamide], for which the “BMX covalent adduct fraction, 30 min” value on kinase domain of BMX is 99%. Besides, the “BMX covalent adduct fraction, 60 min” value at kinase domain of BMX is on record as 100%. In addition, the “BMX covalent adduct fraction, 120 min” value on kinase domain of BMX was found to be 100%. Besides, on kinase domain of BMX, the “BMX covalent adduct fraction, 240 min” value was 100%. Besides, the “covalent labeling of BMX (in words)” value on kinase domain of BMX (1.5-fold molar excess) is on record as “complete labeling”. Besides, the IC50 was 1120 nM on JAK2, 460 nM against JAK1, 1900 nM against TYK2 and greater than 10000 nM against EGFR. For the same molecule, the remaining activity at 0.2 µM at BTK (setting [2]) was 18.9%; at TEC, 42.1%; on EGFR it was 95.5%.
Turning to `C=CC(=O)Nc1cccc(-c2c[nH]c3ncc(C(=O)NC4CCCC4)cc23)c1` [Compound 11a, 3-(3-acrylamidophenyl)-N-cyclopentyl-1H-pyrrolo[2,3-b]pyridine-5-carboxamide], on kinase domain of BMX, the “BMX covalent adduct fraction, 30 min” value was determined as 60%; the “native (unmodified) BMX fraction, 30 min” value is reported as 40%; the “BMX covalent adduct fraction, 60 min” value amounted to 67%; the “native (unmodified) BMX fraction, 60 min” value is 33%. At kinase domain of BMX, the “BMX covalent adduct fraction, 120 min” value came out at 89%; the “native (unmodified) BMX fraction, 120 min” value came out at 11%; the “BMX covalent adduct fraction, 240 min” value amounted to 97%; the “native (unmodified) BMX fraction, 240 min” value amounted to 3%. For the same molecule, at kinase domain of BMX (1.5-fold molar excess), the “exposure required to approach full target modification” value is recorded as 240 min. The “activity at 200 nM on kinases harboring an αD-1 cysteine” value in [1] was “did not show substantial activity”. In addition, the IC50 at JAK3 is greater than 10000 nM.
Take `CCC(=O)Nc1cccc(-c2c[nH]c3ncc(NC(=O)C4CCCC4)cc23)c1` [Compound 12b, N-(3-(3-propionamidophenyl)-1H-pyrrolo[2,3-b]pyridin-5-yl)cyclopentanecarboxamide]: on kinase domain of BMX, the “native (unmodified) BMX fraction, 30 min” value turned out to be 100%; the “native (unmodified) BMX fraction, 60 min” value is 100%; the “native (unmodified) BMX fraction, 120 min” value was determined as 100%; the “native (unmodified) BMX fraction, 240 min” value is recorded as 100%. Further, the “covalent labeling of BMX (in words)” value on kinase domain of BMX (1.5-fold molar excess) is on record as “no modification was detectable”. On BTK (setting [2]), the “Residual Activity @ 200 nM, BTK” value worked out at 69.7% and the remaining activity at 0.2 µM was 70%. Besides, the remaining activity at 0.2 µM on TEC came out at 99.2%. In addition, the remaining activity at 0.2 µM on EGFR is greater than 100%.
For the molecule `C=CC(=O)Nc1cccc(-c2c[nH]c3ncc(NC(=O)c4cccs4)cc23)c1` [Compound 12c, N-(3-(3-acrylamidophenyl)-1H-pyrrolo[2,3-b]pyridin-5-yl)thiophene-2-carboxamide], the “BMX covalent adduct fraction, 30 min” value at kinase domain of BMX was determined as 100%. The “BMX covalent adduct fraction, 60 min” value at kinase domain of BMX is on record as 100%. In addition, on kinase domain of BMX, the “BMX covalent adduct fraction, 120 min” value was 100%. Also, the “BMX covalent adduct fraction, 240 min” value on kinase domain of BMX is 100%. For the same molecule, on kinase domain of BMX (1.5-fold molar excess), the “covalent labeling of BMX (in words)” value was “complete labeling”. Also, the remaining activity at 0.2 µM on BTK (setting [2]) worked out at 0.8%; on TEC, 17.2%; on EGFR it was 14.9%. Besides, the IC50 against BTK (setting [3]) was less than 1 nM; against TEC (setting [3]) it was 13 nM; against EGFR, 12 nM.
